The values below are quoted from earlier work in US11389398B2, “Gastroretentive treatment of nocturnal symptoms and morning akinesia in subjects with parkinson's disease” (priority 2019, dated 2022).

Where two headings read alike, the source gives them in different places.

On to `N[C@@H](Cc1ccc(O)c(O)c1)C(=O)O` [levodopa, 3-hydroxy-L-Tyrosine], for which the “delay in the identification of circulating plasma levodopa levels after meals” value is, setting by setting: (controlled release tablets (Contin 1998)) 30 to 75 min; (immediate release tablets (Baruzzi 1987)) 29 to 60 min.
